From patent publication US4446137A, “Cephalosporin derivative and pharmaceutical composition containing the derivative” (Kureha Kagaku Kogyo Kabushiki Kaisha, priority 1981, dated 1984)

Tests used:
[1] = system: Escherichia coli; assay: Effect on the intestinal bacterial colonies: E. coli count in mouse feces; assay type: in vivo
Procedure: (§1) Each of the cephalosporin derivatives of the invention prepared in Examples 1 to 4 was orally administered to mice (one group consisting of five female ICR mice of 6-week-old) for two consecutive days at a dose of 500 mg/kg/day.
(§2) Before and one day after the administration, feces of each mouse was collected and diluted with an anaerobic diluent (phosphoric buffer solution) of 100 times by volume and the diluted feces was ground. 0.1 ml of the diluted and ground feces was smeared on each culture medium shown in Table 1 and cultured aerobically or anaerobically (according to the anaerobic glove box method) under each condition shown in Table 1 and the number of each bacterium shown in Table 1 was counted.
DHL agar aerobic, 37° C.,

[2] = system: Bacteroides; assay: Effect on the intestinal bacterial colonies: Bacteroides count in mouse feces; assay type: in vivo
Procedure: as §1, §2
Bacteroides NBGT agar anaerobic, 37° C.,

[3] = system: Pseudomonas aeruginosa; assay: Effect on the intestinal bacterial colonies: Ps. aeruginosa count in mouse feces; assay type: in vivo
Procedure: as §1, §2
NAC agar aerobic, 37° C.,

[4] = system: Staphylococcus aureus IAM 1011; assay: Antibacterial activity (MIC), agar plate, Staph. aureus; assay type: cell-based; set-up: unit not given beside the values; details: Mueller-Hinton agar, 37° C., 18 to 24 hours; unit not given
Procedure: (§3) Antibacterial activity of each of the cephalosporin derivatives of the invention prepared in Examples 1 to 4 was examined against the following two bacteria according to the standard method of Japan Society of Chemitherapy: Escherichia coli IFO 12734 and Staphylococcus aureus IAM 1011.
(§4) Each bacterial strain was inoculated into the Mueller-Hinton's culture medium and cultured at 37° C. for 18 to 48 hours. The cultured medium was diluted so as to contain 1×10^6 cells of the bacteria per one ml, and the obtained medium was used as the bacterial specimen.
(§5) Agar plates were prepared by adding one part by weight of each solution of the cephalosporin derivative of the invention at a predetermined concentration to nine parts by weight of Mueller-Hinton's culture medium.
(§6) A loopful amount of the bacterial specimen prepared above was smeared to make a streak of about 2 cm on each agar plate prepared above and cultured at 37° C. for 18 to 24 hours.
(§7) The minimum concentration for completely inhibiting proliferation of the bacteria (referred to as MIC) was determined.

[5] = system: Escherichia coli IFO 12734; assay: Antibacterial activity (MIC), agar plate, E. coli; assay type: cell-based; set-up: unit not given beside the values; details: Mueller-Hinton agar, 37° C., 18 to 24 hours; unit not given
Procedure: as §3, §4, §5, §6, §7

[6] = system: Staphylococcus aureus IAM 1011; assay: Activation by rat liver homogenate (S-9 mix), proliferation-inhibiting circle, penicillin cup; assay type: cell-based; details: 37° C., 20 min, ratio of circle diameter to that of the starting compound; for Proliferation-inhibiting index, before adding S-9 mix (control): phosphoric buffer instead of S-9 mix; for Proliferation-inhibiting index, after adding S-9 mix: rat liver S-9 mix; for all read-outs here: ranges in brackets are in %
Procedure: As an activating enzyme of metabolism, a rat liver homogenate (S-9, manufactured by Oriental Yeast Company, Japan) was used in the following composition per 1 ml (hereinafter referred to as S-9 mix). |S-9 0.5 ml |KCl 3.3 μmol |MgCl2.6H2 O 8 μmol |Glucose 6-phosphate 5 μmol |NADH 4 μmol |NADPH 4 μmol |0.2 M phosphoric buffer solution | 0.5 ml |(pH of 7.4) 0.1 ml of the solution of each of the cephalosporin derivatives of the invention prepared in Examples 1 to 4 at a concentration of 100 μg/ml was mixed with 0.9 ml of S-9 mix or 0.9 ml of 0.1 M phosphoric buffer solution (as a control) and the obtained mixture was incubated at 37° C. for 20 min with shaking. Staphylococcus aureus IAM 1011 was inoculated into a Mueller-Hinton's culture medium and cultured at 37° C. for 18 hours. The culture medium was adjusted to a cell concentration of 1×10^8 per 1 ml and mixed with 50 times by volume of Mueller-Hinton's agar culture medium to obtain an agar plate. A penicillin cup of 8 mm in diameter was placed on the agar plate prepared above, and into the cup 0.1 ml of the mixture containing the cephalosporin derivative prepared above was introduced and allowed to stand at 4° C. for 2 hours, and then cultured at 37° C. for 18 hours to measure the diameter of a circle in which the proliferation of bacteria was inhibited (proliferation-inhibiting circle). In Table 4, the proliferation-inhibiting index is shown in the ratio (%) of the diameter of the proliferation-inhibiting circle obtained by using each of the cephalosporin derivatives of the invention to that obtained by using each of the starting compound in preparing each of the cephalosporin derivatives of the invention.

[7] = system: Streptococcus spp.; assay: Effect on the intestinal bacterial colonies: Streptococcus spp. count in mouse feces; assay type: in vivo
Procedure: as §1, §2
TATAC agar aerobic, 37° C.,

[8] = system: Lactobacillus acidophilus; assay: Effect on the intestinal bacterial colonies: L. acidophilus count in mouse feces; assay type: in vivo
Procedure: as §1, §2
Lactobacillus acidophilus
LBS agar anaerobic, 37° C.,

[9] = system: Lactobacillus bifidus; assay: Effect on the intestinal bacterial colonies: L. bifidus count in mouse feces; assay type: in vivo
Procedure: as §1, §2
BS agar anaerobic, 37° C.,

[10] = female ICR mice, oral 500 mg/kg/day for two days, one day after administration, before administration 6.4

SMILES	Logarithmic value of the number of bacterial cells per one g of feces: E. coli [1, 10]	Logarithmic value of the number of bacterial cells per one g of feces: Bacteroides ([2]; in vivo, po, 500 mg/kg/day)	Logarithmic value of the number of bacterial cells per one g of feces: Ps. aeruginosa ([3]; in vivo, po, 500 mg/kg/day)	MIC, Staph. aureus [4]	MIC, E. coli [5]	Proliferation-inhibiting index, before adding S-9 mix (control) [6]	Proliferation-inhibiting index, after adding S-9 mix [6]	Logarithmic value of the number of bacterial cells per one g of feces: Strept. spp. ([7]; in vivo, po, 500 mg/kg/day)	Logarithmic value of the number of bacterial cells per one g of feces: L. acidophilus ([8]; in vivo, po, 500 mg/kg/day)	Logarithmic value of the number of bacterial cells per one g of feces: L. bifidus ([9]; in vivo, po, 500 mg/kg/day)	change of the number of Escherichia coli compared to before administration ([1]; in vivo)	Logarithmic value of the number of bacterial cells per one g of feces: E. coli ([1]; in vivo, po, 500 mg/kg/day)	Logarithmic value of the number of bacterial cells per one g of feces: Bacteroides ([2]; female ICR mice, oral 500 mg/kg/day for two days, one day after administration, before administration 8.3)	Logarithmic value of the number of bacterial cells per one g of feces: Ps. aeruginosa ([3]; female ICR mice, oral 500 mg/kg/day for two days, one day after administration, before administration <3.0)	Logarithmic value of the number of bacterial cells per one g of feces: Strept. spp. ([7]; female ICR mice, oral 500 mg/kg/day for two days, one day after administration, before administration 6.8)	Logarithmic value of the number of bacterial cells per one g of feces: L. acidophilus ([8]; female ICR mice, oral 500 mg/kg/day for two days, one day after administration, before administration 9.0)	change of Lactobacillus acidophilus ([8]; mouse feces, result in words)	Logarithmic value of the number of bacterial cells per one g of feces: L. bifidus ([9]; female ICR mice, oral 500 mg/kg/day for two days, one day after administration, before administration 8.4)
COC(=O)C[C@H](NC(=O)C1=C(COC(C)=O)CSC2C(NC(=O)Cc3cccs3)C(=O)N12)C(=O)OC (stereo partly drawn) [Example 1, N-[1,2-bis(carbomethoxy)ethyl]-7-(thienyl-2-acetamido)cephalosporanic acid amide]	6.3 Logarithmic value of the numbe	8.5 Logarithmic value of the numbe	< 3.3 Logarithmic value of the numbe	≥ 12.5	≥ 100	- (0)	± (0-1)	7.0 Logarithmic value of the numbe	9.0 Logarithmic value of the numbe	8.6 Logarithmic value of the numbe								
COC(=O)CCC(NC(=O)C1=C(COC(C)=O)CSC2C(NC(=O)Cc3cccs3)C(=O)N12)C(=O)OC (stereo not drawn) [Example 4, N-[1,3-bis(carbomethoxy)propyl]-7-(thienyl-2-acetamido)cephalosporanic acid amide]	6.0 Logarithmic value of the numbe	8.3 Logarithmic value of the numbe	< 3.9 Logarithmic value of the numbe	12.5	≥ 100	+ (1-33)	++ (33-66)	7.0 Logarithmic value of the numbe	9.4 Logarithmic value of the numbe	8.9 Logarithmic value of the numbe								
COC(=O)[C@H](CCSC)NC(=O)C1=C(COC(C)=O)CSC2C(NC(=O)Cc3cccs3)C(=O)N12 (stereo partly drawn) [Example 2, N-(1-carbomethoxy-3-thiomethylpropyl)-7-(thienyl-2-acetamido)cephalosporanic acid amide]	6.4 Logarithmic value of the numbe	8.8 Logarithmic value of the numbe	< 3.0 Logarithmic value of the numbe	≥ 12.5	≥ 100	- (0)	± (0-1)	6.6 Logarithmic value of the numbe	8.9 Logarithmic value of the numbe	8.3 Logarithmic value of the numbe								
CCOC(=O)C(Cc1ccc(O)cc1)NC(=O)C1=C(COC(C)=O)CSC2C(NC(=O)Cc3cccs3)C(=O)N12 (stereo not drawn) [Example 3, N-[1-carboethoxy-2-(4-hydroxyphenyl)ethyl]-7-(thienyl-2-acetamido)cephalosporanic acid amide]	6.5 Logarithmic value of the numbe	8.7 Logarithmic value of the numbe	< 3.0 Logarithmic value of the numbe	≥ 12.5	≥ 100	- (0)	± (0-1)	6.3 Logarithmic value of the numbe	8.9 Logarithmic value of the numbe	8.2 Logarithmic value of the numbe								
CC(=O)OCC1=C(C(=O)O)N2C(=O)[C@@H](NC(=O)Cc3cccs3)[C@H]2SC1 [Cephalotin, reference compound]											increased	9.9 Logarithmic value of the numbe	7.2 Logarithmic value of the numbe	< 3.0 Logarithmic value of the numbe	9.0 Logarithmic value of the numbe	4.1 Logarithmic value of the numbe	decreased	9.2 Logarithmic value of the numbe
